Reference: patent US20250241878A1, “TYROSINE AND RESVERATROL DERIVATIVES AS NOVEL MODULATORS OF CELLULAR SERINE ADP-RIBOSYLATION” (UNIVERSITY OF SOUTH CAROLINA, priority 2022, published 2025)
Entries after “also recorded” stand apart in the source; their conditions may differ. Read-outs that look alike come from different tables or passages of the source. Where a SMILES comes first, the peptide text is derived from it. The star is where a group is joined. Cbz = O=C(OCc1ccccc1)*

Experiments:
TyrRS = type: cell-based, rat; conditions: for levels of neuronal TyrRS: neurotoxic agent alone, after 4 hr of treatment; for neuronal TyrRS levels: picomolar concentration (5-50 pM)
Description: (§1) Primary cortical neurons were dissected from E18 Sprague Dawley rat pups in Hibernate E (BrainBits®) and dissociated using the Neural Tissue Dissociation kit (Miltenyi Biotec). Minced cortices were incubated in a pre-warmed enzyme mix at 37° C. for 15 min; tissues were then triturated and strained using a 40 μm cell strainer. After washing and centrifugation, neurons were seeded in 50 μg/ml poly-D-Lysine (Sigma-Aldrich) coated tissue culture plates. NBActive-1 medium (BrainBits®) supplemented with 100 U/ml of Penicillin-Streptomycin (Life Technologies™), 2 mM L-Glutamine (Life Technologies™), and 1×N21 supplement (R&D Systems™) was used as culture medium. For preparation of culture medium containing reduced tyrosine, the components of NBActive-1 medium were altered to combined with a reduced concentration of tyrosine, as mentioned in Table 1, and was supplemented with 100 U/ml of Penicillin-Streptomycin (Life Technologies™), 2 mM L-Glutamine (Life Technologies™), and 1×N21 supplement (R&D Systems™) to obtained culture medium with reduced tyrosine. Control (non-targeting), TyrRS, and PARP1 siRNAs were obtained from Invitrogen™ (#AM4635, s443, and s130207, respectively). Rat cortical neurons at 5 DIV were transfected with 75 nM control or TyrRS siRNA using DharmaFECT™ 3 Transfection Reagent. A second transfection was done two days later using 75 nM of TyrRS siRNA, followed by cell collection or assays after another 48 hr. For PARP1 siRNA, neurons at 7 DIV were transfected with 75 nM siRNA for both control and PARP1 siRNA.
(§2) Cultured neurons (DIV 9-10) were washed once with cold 1×PBS and lysed in cell lysis buffer (20 mM Tris-HCl (pH 7.5), 150 mM NaCl, 1 mM Na2EDTA, 1 mM EGTA, 1% Triton™, 2.5 mM sodium pyrophosphate, 1 mM beta-glycerophosphate, 1 mM Na3VO4, 1 μg/ml leupeptin supplemented with protease inhibitor). The lysates were centrifuged at 10,000 RPM for 15 mins at 4° C. to separate the chromatin-bound and soluble fractions. Lysates were quantified using Bio-Rad™ Protein Assay and equal amounts of protein were loaded onto a 4 to 12% gradient gel (Invitrogen™ NuPAGE™). Protein was transferred from the gel to 0.2 μm NC membranes at 25 V for 10 mins using transfer stacks (iBlot™ 2-Invitrogen™) and blocked with 5% non-fat milk in TBST (10 mM Tris-HCl pH 8.0, 150 mM NaCl, 0.01% Tween-20) for 1 hr before application of primary antibodies. Primary and secondary antibodies were incubated overnight at 4° C. and for 1 hr at room temperature, respectively. Immobilon® ECL Ultra Western HRP Substrate (WBULS0500, Millipore™) and a luminescent image analyzer (ChemiDoc™ Imaging System, Bio-Rad™) were used to detect proteins. Quantification of western blots was done using ImageJ (Version 1.53c).
Cultured cortical neurons (DIV 9-10) were fixed in 4% formaldehyde for 15 min, followed by permeabilization and blocking for 30 min in 5% BSA (PBS) and 0.1% Tween™ 20 at room temperature. Incubation with primary antibodies was done at 4° C. overnight. The names and dilutions of the primary antibodies used for IF are described in Table 3. Secondary antibodies were incubated for 1 hr at room temperature. Secondary antibodies used were Alexa Fluor® 647 (anti-chicken), Alexa Fluor® 555 (anti-mouse), Alexa Fluor® 488 (anti-rabbit) from Invitrogen™ at 1:1000 dilution. Coverslips were then mounted using DAPI (4′,6-diamidino-2-phenylindole)-supplemented mounting medium, ProLong™ Gold Antifade (Invitrogen™) and imaged with Leica DMI6000 epifluorescent microscope using oil immersion 63×/NA 1.4 objective. The quantification for total protein levels in neurons was done using ImageJ (version 1.53c), and imaging parameters were matched for exposure, gain, and offset.
(§3) The various compounds used for treatments and their stock concentrations in Table 4.

PheRSα/β = PheRSα/β protein levels in cortical neurons (Western blot); type: cell-based, rat; conditions: for PheRSβ levels: compound alone
Description: as §1, §2, §3

HPF1 = HPF1 levels immunoblot in cortical neurons; type: cell-based, rat; conditions: compound alone
Description: FIG. 5A presents immunoblots showing the protein levels of HPF1 in rat cortical neurons (DIV9-10) after treatment with Tyr ([…]) for up to 8 hr.
as §2

eEF2 = eEF2 phosphorylation (p-eEF2) Western blot in cortical neurons; type: cell-based, rat; conditions: compound alone
Description: as §1, §2

[1] = system: histone H3-Ser10-ADP-ribosylation; test: Histone H3 serine-ADP-ribosylation immunoblot in cortical neurons; type: cell-based, rat; conditions: for histone H3 serine-ADP-ribosylation: compound alone; for histone serine-ADP-ribosylation: picomolar concentration (5-50 pM)
Description: FIG. 5B presents representative immunoblots and quantification of histone H3-Ser10-ADP-ribosylation levels in cortical neurons (DIV9) using anti-H3-Ser10-ADPR antibody after treatment with D-tyrosine (2.5 and 5 mM).
as §2

rat cortical neurons [2] = test: MTT cell viability assay; conditions: for effect on trans-RSV-mediated neurotoxicity: combination with trans-RSV; for neurotoxicity (viability): D-amino acid alone; for effect on cis-RSV-mediated neuroprotective effects: combination with cis-RSV, NMDA toxicity
Description: (§4) Rat cortical neurons (DIV9-11) were exposed to different treatments (NMDA, ETO, H2O2, MPP+) after seeding 20,000 cells/well in 96-well plates. Cell viability was then assessed at 48 hr after the initial exposure to NMDA. 3-[4,5-dimethylthiazole-2-yl]-2,5-diphenyltetrazolium bromide (MTT) assays were used to assess change in cell viability. […] Cultured rat cortical neurons were incubated with MTT (0.5 mg/mL). In the MTT assay, after 2 hr incubation, the insoluble purple product formazan resulting from the reduction of MTT by NAD (P) H-dependent oxidoreductases present in cells with viable mitochondria was solubilized in dimethyl sulfoxide at room temperature, under agitation, and protected from light. The percentage of MTT reduced as measured by the difference between the absorbances at 570 nm read in a spectrophotometer (SpectraMax® 190R Molecular Devices, UK).

cleaved caspase-3 = test: Cleaved caspase-3 immunoblot; type: cell-based, rat; conditions: compound alone; trans-RSV at high concentration
Description: FIG. 17E presents immunoblots showing the levels of cleaved caspase-3 in rat cortical neurons (DIV 9/10) after the treatment with D-Tyr (2 mM) for 16 hr.

neuronal chromatin = test: Chromatin fraction immunoblots of cortical neurons; type: cell-based, rat; conditions: picomolar concentration
Description: as §2

monosomes = test: Monosome formation in cortical neurons; type: cell-based, rat
rat cortical neurons [3] = system: rat cortical neurons
Description: as §4

[4] = compound alone, rat cortical neurons

C[n+]1ccc(-c2ccccc2)cc1 [MPP+, 1-methyl-4-phenylpyridinium]
levels of neuronal TyrRS (TyrRS): decreased the levels of neuronal TyrRS

O=C(COc1ccc(Cl)cc1)NC1CCC(NC(=O)COc2ccc(Cl)cc2)CC1 (stereo not shown) [ISRIB]
PheRSβ protein levels (PheRSα/β; ISRIB 5-50 nM): increased the protein levels of TyrRS and PheRSβ
TyrRS protein levels (TyrRS; ISRIB 5-50 nM): increased the protein levels of TyrRS
effect on trans-RSV mediated depletion of TyrRS (TyrRS; combination with trans-RSV): rescued trans-RSV mediated depletion of TyrRS
TyrRS levels (TyrRS; higher doses of ISRIB (250-500 nM)): decreased TyrRS levels
HPF1 levels (HPF1): increased HPF1 levels
eEF2 phosphorylation (p-eEF2) (eEF2): stimulated the dephosphorylation of eEF2
histone H3 serine-ADP-ribosylation [1]: induction of histone H3 serine-ADP-ribosylation
effect on trans-RSV-mediated neurotoxicity (rat cortical neurons [2]): protected against neurotoxic effects of trans-RSV

NCCc1ccc(O)c(O)c1 [DA, dopamine]
TyrRS protein levels (TyrRS): increased the protein levels of TyrRS
histone H3 serine-ADP-ribosylation [1]: stimulated histone H3 serine-ADP-ribosylation
effect on trans-RSV-mediated neurotoxicity (rat cortical neurons [2]): protected against neurotoxic effects of trans-RSV

amyloid beta 40: amyloid beta 40 peptide at picomolar concentration
neuronal TyrRS levels (TyrRS): stimulation of neuronal TyrRS protein levels
histone serine-ADP-ribosylation [1]: activation of histone serine-ADP-ribosylation

N[C@H](Cc1ccc(O)cc1)C(=O)O [D-Tyr, D-tyrosine]
levels of cleaved caspase-3 (cleaved caspase-3): increased the levels of cleaved caspase-3
histone H3 serine-ADP-ribosylation [1]: potent inhibitor of TyrRS/PARP1/HPF1-dependent serine-ADP-ribosylation and DNA repair
neurotoxicity (viability) (rat cortical neurons [2]): induced neurotoxicity

CN(C)Cc1ccc(-c2nc3cccc4c3n2CCNC4=O)cc1 [AG-14361]
effect on cis-RSV-mediated neuroprotective effects (rat cortical neurons [2]): did not affect cis-RSV-mediated neuroprotective effects

amyloid beta 42: amyloid beta 42 peptide at physiological picomolar concentration
neuronal TyrRS levels (TyrRS): stimulation of neuronal TyrRS protein levels; also recorded: endogenous stimulator
chromatin trapping of auto-PARylated PARP1 with Rad52, DNA polymerase beta, ligase III, TyrRS (neuronal chromatin): trapping of auto-PARylated PARP1 along with Rad52, DNA polymerase beta, ligase III, TyrRS onto the chromatin
histone serine-ADP-ribosylation [1]: activation of histone serine-ADP-ribosylation; also recorded: endogenous stimulator
monosome formation (monosomes; picomolar amyloid beta 42 (5-50 pM; 10 picomolar in FIG. 20A)): endogenous stimulator of monosome formation

N[C@H](Cc1ccccc1)C(=O)O [D-Phe]
neurotoxicity (viability) (rat cortical neurons [2]): had no significant effects

Cn1ncnc1[C@H]1c2n[nH]c(=O)c3cc(F)cc(c23)N[C@@H]1c1ccc(F)cc1 [talazoparib]
effect on amyloid beta 42-induced monosome formation (monosomes; combination with amyloid beta 42 (10 picomolar)): lost

C[C@@H]1C[C@@H]([C@H](O)CC2CC(=O)NC(=O)C2)C(=O)[C@@H](C)C1 [cycloheximide]
effect on cis-RSV-mediated increase in TyrRS level (TyrRS; combination with cis-RSV): abrogated
TyrRS protein levels (TyrRS; [4]): decreased TyrRS levels

N[C@H](Cc1c[nH]c2ccccc12)C(=O)O [D-Trp]
neurotoxicity (viability) (rat cortical neurons [3]): had no significant effects

N[C@@H](Cc1ccccc1)C(=O)O [phenylalanine, L-phenylalanine]
PheRSβ levels (PheRSα/β): decreased the levels of TyrRS and PheRSβ
TyrRS protein levels (TyrRS; [4]): decreased the levels of TyrRS

NCCc1cc(O)c(O)cc1O [Formula 6-OHDA, 6-hydroxydopamine]
PheRSβ levels (PheRSα/β): decreased the levels of TyrRS and PheRSβ
TyrRS protein levels (TyrRS; [4]): decreased the levels of TyrRS

N[C@@H](Cc1ccc(O)c(O)c1)C(=O)O [L-DOPA, 3,4-dihydroxy-L-phenylalanine]
PheRSβ levels (PheRSα/β): decreased the levels of TyrRS and PheRSβ
TyrRS protein levels (TyrRS; [4]): decreased the levels of TyrRS

CO/C1=C\C(C)=C\[C@@H](C)[C@@H](O)[C@@H](C)C/C(C)=C/C=C/[C@H](OC)[C@@H]([C@@H](C)[C@@H](O)[C@H](C)[C@@]2(O)C[C@@H](O)[C@H](C)[C@@H](C(C)C)O2)OC1=O [bafilomycin]
TyrRS protein levels (TyrRS; [4]): increased the levels of TyrRS

CN[C@H](CC(=O)O)C(=O)O [NMDA, N-Methyl-D-aspartate]
levels of neuronal TyrRS (TyrRS): decreased the levels of neuronal TyrRS

CCn1c(=O)c2cc(C(N)=O)c(N)nc2n(C2CC2)c1=O [eEF2K inhibitor]
effect on trans-RSV-mediated neurotoxicity (rat cortical neurons [2]): protected against neurotoxic effects of trans-RSV

Cc1c(O)cccc1C(=O)N[C@@H](CSc1ccccc1)[C@H](O)CN1C[C@H]2CCCC[C@H]2C[C@H]1C(=O)NC(C)(C)C [nelfinavir]
TyrRS protein levels (TyrRS; [4]): depleted neuronal TyrRS

CC(C)C[C@@H](C=O)NC(=O)[C@H](CC(C)C)NC(=O)[C@H](CC(C)C)NC(=O)OCc1ccccc1 [MG132] (Cbz-Leu-Leu-Leu-aldehyde)
TyrRS protein levels (TyrRS; [4]): increased the levels of TyrRS

O=C(c1cc(Cc2n[nH]c(=O)c3ccccc23)ccc1F)N1CCN(C(=O)C2CC2)CC1 [olaparib]
effect on cis-RSV-mediated neuroprotective effects (rat cortical neurons [2]): mitigated the neuroprotective effects of cis-RSV
effect on trans-RSV-mediated neurotoxicity (rat cortical neurons [2]): did not affect trans-RSV-mediated neurotoxicity

B1: BDNF: brain-derived neurotrophic factor (protein, UniProt P23560 19-247, looked up)
Neurotrophic factor BDNF …: APMKEANIRGQGGLAYPGVRTHGTLESVNGPKAGSRGLTSLADTFEHVIEELLDEDQKVRPNEENNKDADLYTSRVMLSSQVPLEPPLLFLLEEYKNYLDAANMSMRVRRHSDPARRGELSVCDSISEWVTAADKKTAVDMSGGTVTVLEKVPVSKGQLKQYFYETKCNPMGYTKEGCRGIDKRHWNSQCRTTQSYVRALTMDSKKRIGWRFIRIDTSCVCTLTIKRGR
TyrRS protein levels (TyrRS; [4]): stimulates the de novo synthesis of neuronal TyrRS
HPF1 levels (HPF1): increased HPF1 levels
histone H3 serine-ADP-ribosylation [1]: induction of histone H3 serine-ADP-ribosylation
